# Counter-ions that a name gives are not always drawn. Like-named read-outs stand apart in the source and are kept apart here.
# Columns and labels:
# [1] = tested on: CHIKV replicon; assay: microbe, parasite or virus in culture; assay type: cell-based, Chikungunya virus (CHIKV)
# [2] = tested on: SFV-Rluc; conditions: for IC50: read-out: SFV IC50
# [3] = tested on: BHK cells; assay: Cell viability ATP assay, BHK cells; assay type: cell-based, hamster; conditions: read-out: Cell viability IC50
# [4] = tested on: SFV-Rluc; assay: microbe, parasite or virus in culture; conditions: Semliki Forest virus, BHK, 14 h, read-out: SFV IC50
# [5] = tested on: SFV; assay: CPE reduction assay, SFV (WST-1); assay type: cell-based, Semliki Forest virus (SFV); conditions: read-out: SFV IC50 (CPE reduction)
# [6] = tested on: SINV; assay: CPE reduction assay, SINV (WST-1); assay type: cell-based, Sindbis virus (SINV); conditions: read-out: SINV IC50 (CPE reduction)
# [7] = tested on: SFV; assay: Viral yield analysis using a plaque assay; assay type: cell-based, Semliki Forest virus (SFV); conditions: BHK cells, MOI 0.01, 50 µM compound, 16 h; untreated control 1.4×10^9 PFU/ml
# [8] = tested on: SFVts9-Rluc; assay type: cell-based, Semliki Forest virus (SFV)
# [9] = tested on: CHIKV-Rluc; assay: microbe, parasite or virus in culture; assay type: cell-based, Chikungunya virus (CHIKV); conditions: read-out: CHIKV-Rluc IC50
# [10] = Mesocricetus auratus, BHK, 48 h
# [11] = ATP assay, 48 h exposure of BHK cells
# [12] = Semliki Forest virus, BHK, 22 h
compound,measurement,setting,value
CC(=O)c1ccc(O)cc1 [4-Hydroxyacetophenone],CHIKV replicon % left,[1],94.5%
same,"SFV replication % left (surviving fraction, remaining percentage of SFV replication)",[2],29.4%
same,SI (selectivity index),[2],7.8
same,IC50,[3]; [10],164 µM
same,IC50,[4],21.1 µM
CCN(CC)c1ccc2cc(C(=O)c3cccs3)c(=O)oc2c1 [7-Diethylamino-3-thenoylcoumarin],CHIKV replicon % left,[1],36.9%
same,"SFV replication % left (surviving fraction, remaining percentage of SFV replication)",[2],15.6%
same,IC50,[2],5.1 µM
same,IC50,[3]; [11],39.1 µM
C#C[C@]1(O)CC[C@H]2[C@@H]3CCc4cc(O)ccc4[C@H]3CC[C@@]21C [17-Ethinylestradiol],SI (selectivity index),[2],>21.1
same,IC50,[5]; [12],63 µM
same,IC50,"[6]; Sindbis virus, BHK, 24 h",56.8 µM
same,SFV yield,[7],9.0×10^8 PFU/ml
same,IC50,[3]; [10],> 200 µM
same,IC50,[4],9.5 µM
O=c1cc(-c2ccccc2)oc2c1ccc1ccccc12 [Alphanaphtoflavone],IC50,[2],24.1 µM
same,IC50,[3]; [11],> 200 µM
COc1c2ccoc2cc2oc(=O)ccc12 [Bergapten],SI (selectivity index),[2],>24.6
same,IC50,[5]; [12],9.2 µM
same,IC50,"[6]; Sindbis virus, BHK, 24 h",16.2 µM
same,SFV yield,[7],1.2×10^8 PFU/ml
same,IC50,[3]; [10],> 200 µM
same,IC50,[4],8.1 µM
CN(C)CCCN1c2ccccc2Sc2ccc(Cl)cc21 [Chlorpromazine],Effect on SFV entry (Rluc activity),[8],decreased the Rluc activity
same,IC50,"[9]; Chikungunya virus, BHK, 16 h",39.4 µM
same,IC50,[3]; [10],67.3 µM
same,IC50,[4],15.7 µM
CCN(CC)c1ccc2cc(-c3nc4ccccc4n3C)c(=O)oc2c1 [Coumarin 30],CHIKV replicon % left,[1],44.1%
same,"SFV replication % left (surviving fraction, remaining percentage of SFV replication)",[2],12.3%
same,IC50,[2],0.4 µM
same,IC50,"[5]; BHK cells, MOI 0.01, 22 h post-infection, WST-1, 200 µM to 0.1 µM",5.5 µM
same,IC50,"[6]; BHK cells, MOI 0.01, 24 h post-infection, WST-1, 200 µM to 0.1 µM",11.8 µM
same,SFV yield,[7],5.0×10^8 PFU/ml
same,IC50,[9],6.4 µM
same,IC50,[3]; [11],92.4 µM
CN(C)CCC=C1c2ccccc2COc2ccccc21 [Doxepin],SFV yield,[7],3.6×10^8 PFU/ml
CC1=CC(=O)c2ccccc2C1=O [Menadione],SI (selectivity index),[2],2.8
same,IC50,[3]; [10],21.9 µM
same,IC50,[4],7.8 µM
CN1CCC(CN2c3ccccc3Sc3ccccc32)C1 (stereo not shown) [Methdilazine],CHIKV replicon % left,[1],19.1%
same,"SFV replication % left (surviving fraction, remaining percentage of SFV replication)",[2],22.5%
same,SI (selectivity index),[2],5.6
same,Effect on SFV entry (Rluc activity),[8],decreased the Rluc activity
same,IC50,"[9]; Chikungunya virus, BHK, 16 h",84.5 µM
same,IC50,[3]; [10],63.8 µM
same,IC50,[4],11.3 µM
N/C(CC(O)COc1cccc2ccccc12)=N/O (stereo not shown) [Nadoxolol],CHIKV replicon % left,[1],69.2%
same,"SFV replication % left (surviving fraction, remaining percentage of SFV replication)",[2],20.8%
same,SI (selectivity index),[2],>12.2
same,IC50,[5]; [12],15.2 µM
same,IC50,"[6]; Sindbis virus, BHK, 24 h",8.2 µM
same,SFV yield,[7],9.2×10^7 PFU/ml
same,IC50,[3]; [10],> 200 µM
same,IC50,[4],16.4 µM
OCCN1CCN(CCCN2c3ccccc3C=Cc3ccccc32)CC1 [Opipramol],CHIKV replicon % left,[1],101.5%
same,"SFV replication % left (surviving fraction, remaining percentage of SFV replication)",[2],27.5%
same,SI (selectivity index),[2],>10.2
same,IC50,[5]; [12],25 µM
same,IC50,"[6]; Sindbis virus, BHK, 24 h",31 µM
same,SFV yield,[7],2.5×10^8 PFU/ml
same,IC50,[3]; [10],> 200 µM
same,IC50,[4],19.7 µM
OCCN1CCN(CCCN2c3ccccc3Sc3ccc(Cl)cc32)CC1 [Perphenazine],CHIKV replicon % left,[1],88.1%
same,"SFV replication % left (surviving fraction, remaining percentage of SFV replication)",[2],10.6%
same,SI (selectivity index),[2],6.2
same,Effect on SFV entry (Rluc activity),[8],decreased the Rluc activity
same,IC50,"[9]; Chikungunya virus, BHK, 16 h",48.1 µM
same,IC50,[3]; [10],155 µM
same,IC50,[4],25.1 µM
CCCOC(=O)c1cc(O)c(O)c(O)c1 [Propyl gallate],SI (selectivity index),[2],5.8
same,IC50,[3]; [10],103 µM
same,IC50,[4],17.9 µM
O=C(O)c1ccc(O)c(O)c1 [Protocatechuic acid],CHIKV replicon % left,[1],105.4%
same,"SFV replication % left (surviving fraction, remaining percentage of SFV replication)",[2],21.1%
same,SI (selectivity index),[2],>25.0
same,IC50,[5]; [12],> 200 µM
same,IC50,"[6]; Sindbis virus, BHK, 24 h",> 200 µM
same,SFV yield,[7],2.4×10^9 PFU/ml
same,IC50,[3]; [10],> 200 µM
same,IC50,[4],8 µM
Oc1cccc(O)c1O [Pyrogallol],CHIKV replicon % left,[1],89.2%
same,"SFV replication % left (surviving fraction, remaining percentage of SFV replication)",[2],22.7%
same,SI (selectivity index),[2],>10.7
same,IC50,[5]; [12],> 200 µM
same,IC50,"[6]; Sindbis virus, BHK, 24 h",> 200 µM
same,SFV yield,[7],1.1×10^9 PFU/ml
same,IC50,[3]; [10],> 200 µM
same,IC50,[4],18.7 µM
C[C@@H]1O[C@@H](Oc2c(-c3ccc(O)c(O)c3)oc3cc(O)cc(O)c3c2=O)[C@H](O)[C@H](O)[C@H]1O [Quercitrin],SI (selectivity index),[2],>8.4
same,IC50,[3]; [10],> 200 µM
same,IC50,[4],23.7 µM
Cn1c(=O)c2[nH]cnc2n(C)c1=O [Theophylline],CHIKV replicon % left,[1],100.4%
same,"SFV replication % left (surviving fraction, remaining percentage of SFV replication)",[2],87.8%
Cc1ncc(C[n+]2csc(CCO)c2C)c(N)n1.O=[N+]([O-])[O-] [Thiamine mononitrate],CHIKV replicon % left,[1],85.0%
same,"SFV replication % left (surviving fraction, remaining percentage of SFV replication)",[2],95.2%
"CSc1ccc2c(c1)N(CCC1CCCCN1C)c1ccccc1S2 (stereo not shown) [Thioridazine, reference compound]",CHIKV replicon % left,[1],95.4%
same,"SFV replication % left (surviving fraction, remaining percentage of SFV replication)",[2],11.6%
same,Effect on SFV entry (Rluc activity),[8],decreased the Rluc activity
same,SFV yield,[7],6.8×10^8 PFU/ml
Cc1ccc(C(C)C)c(O)c1 [Thymol],CHIKV replicon % left,[1],71.1%
same,"SFV replication % left (surviving fraction, remaining percentage of SFV replication)",[2],42.0%
CC(C)(C)NC[C@H](O)COc1nsnc1N1CCOCC1 [Timolol maleate],CHIKV replicon % left,[1],100.6%
same,"SFV replication % left (surviving fraction, remaining percentage of SFV replication)",[2],129.1%
